Data reported in patent US9661853B2, “Molecules having pesticidal utility, and intermediates, compositions, and processes, related thereto” (Dow AgroSciences LLC, priority 2015, dated 2017).

What was measured:
[1] = tested on: Beet Armyworm (Spodoptera exigua, LAPHEG); experiment: Bioassay on Beet Armyworm (BAW), 128-well diet tray assay; assay type: in vivo; details: 168 h, 50 μg/cm^2 on artificial diet, second instar larvae, 25° C., five to seven days, average of eight wells, read-out: BAW % Control (or Mortality) rating
Experimental: (§1) Bioassays on Beet Armyworm (Spodoptera exigua, LAPHEG) (“BAW”) and Cabbage Looper (Trichoplusia ni, TRIPNI) (“CL”)
(§2) Certain molecules disclosed in this document were tested against BAW and CL using procedures described in the following examples. In the reporting of the results, the “BAW & CL Rating Table” was used (See Table Section).
Bioassays on BAW were conducted using a 128-well diet tray assay. One to five second instar BAW larvae were placed in each well (3 mL) of the diet tray that had been previously filled with 1 mL of artificial diet to which 50 μg/cm^2 of the test molecule (dissolved in 50 μL of 90:10 acetone-water mixture) had been applied (to each of eight wells) and then allowed to dry. Trays were covered with a clear self-adhesive cover, vented to allow gas exchange, and held at 25° C., 14:10 light-dark for five to seven days. Percent mortality was recorded for the larvae in each well; activity in the eight wells was then averaged. The results are indicated in the table entitled “Table ABC: Biological Results” (See Table Section).

[2] = tested on: Cabbage Looper (Trichoplusia ni, TRIPNI); experiment: Bioassay on Cabbage Looper (CL), 128-well diet tray assay; assay type: in vivo; details: 168 h, 50 μg/cm^2 on artificial diet, second instar larvae, 25° C., five to seven days, average of eight wells, read-out: CL % Control (or Mortality) rating
Experimental: as §1, §2
Bioassays on CL were conducted using a 128-well diet tray assay. One to five second instar CL larvae were placed in each well (3 mL) of the diet tray that had been previously filled with 1 mL of artificial diet to which 50 μg/cm^2 of the test molecule (dissolved in 50 μL of 90:10 acetone-water mixture) had been applied (to each of eight wells) and then allowed to dry. Trays were covered with a clear self-adhesive cover, vented to allow gas exchange, and held at 25° C., 14:10 light-dark for five to seven days. Percent mortality was recorded for the larvae in each well; activity in the eight wells was then averaged. The results are indicated in the table entitled “Table ABC: Biological Results” (See Table Section).

Row | SMILES | mortality at 50 µg/cm2 [1] [%] | mortality at 50 µg/cm2 [2] [%]
1 | Cc1ccc(C(C)C)c(N2C(=O)CS/C2=N\C(=O)Nc2ccc(NCc3ncn(-c4ccc(OC(F)(F)F)cc4)n3)cc2)c1 [F28, (Z)-1-(3-(2-isopropyl-5-methylphenyl)-4-oxothiazolidin-2-ylidene)-3-(4-(((1-(4-(trifluoromethoxy)phenyl)-1H-1,2,4-triazol-3-yl)methyl)amino)phenyl)urea] | 50 to 100 | 50 to 100
2 | CCCc1ccc(C)cc1N1C(=O)CS/C1=N\C(=O)Nc1ccc(NCc2ncn(-c3ccc(OC(F)(F)F)cc3)n2)cc1 [F29, (Z)-1-(3-(5-Methyl-2-propylphenyl)-4-oxothiazolidin-2-ylidene)-3-(4-(((1-(4-(trifluoromethoxy)phenyl)-1H-1,2,4-triazol-3-yl)methyl)amino)phenyl)urea] | 50 to 100 | 50 to 100
3 | COCc1ccc(C)cc1N1C(=O)CS/C1=N\C(=O)Nc1ccc(NCc2ncn(-c3ccc(OC(F)(F)F)cc3)n2)cc1 [F30, (Z)-1-(3-(2-(Methoxymethyl)-5-methylphenyl)-4-oxothiazolidin-2-ylidene)-3-(4-(((1-(4-(trifluoromethoxy)phenyl)-1H-1,2,4-triazol-3-yl)methyl)amino)phenyl)urea] | 50 to 100 | 50 to 100
4 | Cc1ccc(C(C)C)c(N2C(=O)CS/C2=N\C(=O)Nc2ccc(NCc3ncn(-c4ccc(OC(F)(F)F)cc4)n3)cc2F)c1 [F31, (Z)-1-(2-Fluoro-4-(((1-(4-(trifluoromethoxy)phenyl)-1H-1,2,4-triazol-3-yl)methyl)amino)phenyl)-3-(3-(2-isopropyl-5-methylphenyl)-4-oxothiazolidin-2-ylidene)urea] | 50 to 100 | 50 to 100
5 | CCCc1ccc(C)cc1N1C(=O)CS/C1=N\C(=O)Nc1ccc(NCc2ncn(-c3ccc(OC(F)(F)F)cc3)n2)cc1F [F32, (Z)-1-(2-Fluoro-4-(((1-(4-(trifluoromethoxy)phenyl)-1H-1,2,4-triazol-3-yl)methyl)amino)phenyl)-3-(3-(5-methyl-2-propylphenyl)-4-oxothiazolidin-2-ylidene)urea] | 50 to 100 | 50 to 100
6 | COCc1ccc(C)cc1N1C(=O)CS/C1=N\C(=O)Nc1ccc(NCc2ncn(-c3ccc(OC(F)(F)F)cc3)n2)cc1F [F33, (Z)-1-(2-Fluoro-4-(((1-(4-(trifluoromethoxy)phenyl)-1H-1,2,4-triazol-3-yl)methyl)amino)phenyl)-3-(3-(2-(methoxymethyl)-5-methylphenyl)-4-oxothiazolidin-2-ylidene)urea] | 50 to 100 | 50 to 100
7 | Cc1ccc(C(C)C)c(N2C(=O)CS/C2=N\C(=O)Nc2ccc(NCc3ncn(-c4ccc(OC(F)(F)F)cc4)n3)c(F)c2)c1 [F34, (Z)-1-(3-Fluoro-4-(((1-(4-(trifluoromethoxy)phenyl)-1H-1,2,4-triazol-3-yl)methyl)amino)phenyl)-3-(3-(2-isopropyl-5-methylphenyl)-4-oxothiazolidin-2-ylidene)urea] | 50 to 100 | 50 to 100
8 | CCCc1ccc(C)cc1N1C(=O)CS/C1=N\C(=O)Nc1ccc(NCc2ncn(-c3ccc(OC(F)(F)F)cc3)n2)c(F)c1 [F35, (Z)-1-(3-Fluoro-4-(((1-(4-(trifluoromethoxy)phenyl)-1H-1,2,4-triazol-3-yl)methyl)amino)phenyl)-3-(3-(5-methyl-2-propylphenyl)-4-oxothiazolidin-2-ylidene)urea] | 50 to 100 | 50 to 100
9 | COCc1ccc(C)cc1N1C(=O)CS/C1=N\C(=O)Nc1ccc(NCc2ncn(-c3ccc(OC(F)(F)F)cc3)n2)c(F)c1 [F36, (Z)-1-(3-Fluoro-4-(((1-(4-(trifluoromethoxy)phenyl)-1H-1,2,4-triazol-3-yl)methyl)amino)phenyl)-3-(3-(2-(methoxymethyl)-5-methylphenyl)-4-oxothiazolidin-2-ylidene)urea] | 50 to 100 | 50 to 100
10 | COc1cc(NC(=O)/N=C2\SCC(=O)N2c2cc(C)ccc2C(C)C)ccc1NCc1ncn(-c2ccc(OC(F)(F)F)cc2)n1 [F37, (Z)-1-(3-(2-Isopropyl-5-methylphenyl)-4-oxothiazolidin-2-ylidene)-3-(3-methoxy-4-(((1-(4-(trifluoromethoxy)phenyl)-1H-1,2,4-triazol-3-yl)methyl)amino)phenyl)urea] | 50 to 100 | 50 to 100
11 | CCCc1ccc(C)cc1N1C(=O)CS/C1=N\C(=O)Nc1ccc(NCc2ncn(-c3ccc(OC(F)(F)F)cc3)n2)c(OC)c1 [F38, (Z)-1-(3-Methoxy-4-(((1-(4-(trifluoromethoxy)phenyl)-1H-1,2,4-triazol-3-yl)methyl)amino)phenyl)-3-(3-(5-methyl-2-propylphenyl)-4-oxothiazolidin-2-ylidene)urea] | 50 to 100 | 50 to 100
12 | COCc1ccc(C)cc1N1C(=O)CS/C1=N\C(=O)Nc1ccc(NCc2ncn(-c3ccc(OC(F)(F)F)cc3)n2)c(OC)c1 [F39, (Z)-1-(3-Methoxy-4-(((1-(4-(trifluoromethoxy)phenyl)-1H-1,2,4-triazol-3-yl)methyl)amino)phenyl)-3-(3-(2-(methoxymethyl)-5-methylphenyl)-4-oxothiazolidin-2-ylidene)urea] | 50 to 100 | 50 to 100
13 | Cc1ccc(C(C)C)c(N2C(=O)CS/C2=N\C(=O)Nc2ccc(NCc3ncn(-c4ccc(OC(F)(F)F)cc4)n3)cc2Cl)c1 [F40, (Z)-1-(2-Chloro-4-(((1-(4-(trifluoromethoxy)phenyl)-1H-1,2,4-triazol-3-yl)methyl)amino)phenyl)-3-(3-(2-isopropyl-5-methylphenyl)-4-oxothiazolidin-2-ylidene)urea] | 50 to 100 | 50 to 100
14 | CCCc1ccc(C)cc1N1C(=O)CS/C1=N\C(=O)Nc1ccc(NCc2ncn(-c3ccc(OC(F)(F)F)cc3)n2)cc1Cl [F41, (Z)-1-(2-Chloro-4-(((1-(4-(trifluoromethoxy)phenyl)-1H-1,2,4-triazol-3-yl)methyl)amino)phenyl)-3-(3-(5-methyl-2-propylphenyl)-4-oxothiazolidin-2-ylidene)urea] | 50 to 100 | 50 to 100
15 | COCc1ccc(C)cc1N1C(=O)CS/C1=N\C(=O)Nc1ccc(NCc2ncn(-c3ccc(OC(F)(F)F)cc3)n2)cc1Cl [F42, (Z)-1-(2-Chloro-4-(((1-(4-(trifluoromethoxy)phenyl)-1H-1,2,4-triazol-3-yl)methyl)amino)phenyl)-3-(3-(2-(methoxymethyl)-5-methylphenyl)-4-oxothiazolidin-2-ylidene)urea] | 50 to 100 | 50 to 100
16 | Cc1ccc(C(C)C)c(N2C(=O)CS/C2=N\C(=O)Nc2ccc(NCc3ncn(-c4ccc(OC(F)(F)F)cc4)n3)c(Cl)c2)c1 [F43, (Z)-1-(3-Chloro-4-(((1-(4-(trifluoromethoxy)phenyl)-1H-1,2,4-triazol-3-yl)methyl)amino)phenyl)-3-(3-(2-isopropyl-5-methylphenyl)-4-oxothiazolidin-2-ylidene)urea] | 50 to 100 | 50 to 100
17 | CCCc1ccc(C)cc1N1C(=O)CS/C1=N\C(=O)Nc1ccc(NCc2ncn(-c3ccc(OC(F)(F)F)cc3)n2)c(Cl)c1 [F44, (Z)-1-(3-Chloro-4-(((1-(4-(trifluoromethoxy)phenyl)-1H-1,2,4-triazol-3-yl)methyl)amino)phenyl)-3-(3-(5-methyl-2-propylphenyl)-4-oxothiazolidin-2-ylidene)urea] | 50 to 100 | 50 to 100
